In brackets after ≈: the same amount, converted by molar mass. Activity calls are given as the source filed them. The rule behind the calls is not given here. Numbered stars: 1 amine (or outer) side, 2 acyl side, 3 side chain; on linkers, the order of the positions; unused ones are H or OH. Square brackets hold non-standard residues; d marks the D form. Peptide text beside a SMILES is read from it. * marks the point of attachment. X2 = CC(C)C[C@H](N)CN(CC(=O)[*:2])[*:1]; X1 = O=S(=O)(c1ccc(I)cc1)*
Experiments:
[1] = system: Cell membrane; assay: Induction of membrane disruption in Pseudomonas aeruginosa ATCC 27853 assessed as separation of outer membrane at 2 to 4 times MIC incubated for 24 hrs by TEM analysis; type: subcellular
[2] = system: Pseudomonas aeruginosa; assay: Antimicrobial activity against Pseudomonas aeruginosa ATCC 27853 incubated for 18 hrs by microdilution method; type: functional
[3] = system: Pseudomonas aeruginosa; assay: Antibiofilm activity against Pseudomonas aeruginosa ATCC 27853 at 4 to 8 ug/ml incubated for 24 hrs by crystal violet staining based microplate reader analysis; type: functional, organism-based; conditions: dose 4-8 µg/ml
[4] = system: Staphylococcus aureus; assay: Antibiofilm activity against methicillin resistant staphylococcus aureus ATCC 33591 at 4 to 8 ug/ml incubated for 24 hrs by crystal violet staining based microplate reader analysis; type: functional, organism-based; conditions: dose 4-8 µg/ml
[5] = system: Staphylococcus epidermidis; assay: Antibiofilm activity against Staphylococcus epidermidis ATCC 12228 at 2 to 4 ug/ml incubated for 24 hrs by crystal violet staining based microplate reader analysis; type: functional; conditions: dose 2-4 µg/ml, at 2 to 4 µg/mL
[6] = system: Pseudomonas aeruginosa; assay: Bactericidal activity against Pseudomonas aeruginosa ATCC 27853 at 4 times MIC after 1 hr; type: functional, organism-based
[7] = system: Pseudomonas aeruginosa; assay: Antibiofilm activity against Pseudomonas aeruginosa ATCC 27853 assessed as reduction in biofilm thickness at 1 times MBIC90 incubated for 24 hrs by confocal laser scanning microscopy analysis (reference value: 90 micrometer); type: functional
[8] = system: Pseudomonas aeruginosa; assay: Antibiofilm activity against Pseudomonas aeruginosa ATCC 27853 assessed as reduction in biofilm thickness at 2 times MBIC90 incubated for 24 hrs by confocal laser scanning microscopy analysis; type: functional
[9] = system: Staphylococcus aureus; assay: Antibiofilm activity against methicillin resistant Staphylococcus aureus ATCC 33591 assessed as reduction in biofilm thickness; type: functional, organism-based
[10] = system: Staphylococcus aureus; assay: Antibiofilm activity against methicillin resistant Staphylococcus aureus ATCC 33591 assessed as reduction in biofilm mass; type: functional, organism-based
[11] = system: Staphylococcus aureus; assay: Antibiofilm activity against methicillin resistant Staphylococcus aureus ATCC 33591 assessed as reduction in biofilm structures at MBIC90 by scanning electron microscopic analysis; type: functional, organism-based
[12] = system: Pseudomonas aeruginosa; assay: Bactericidal activity against Pseudomonas aeruginosa ATCC 27853 at 4 times MIC after 5 mins by time kill assay; type: functional, organism-based
[13] = system: Pseudomonas aeruginosa; assay: Bactericidal activity against Pseudomonas aeruginosa ATCC 27853 at 4 times MIC after 2 to 6 hrs by time kill assay; type: functional, organism-based; conditions: time 2-6 hrs
[14] = system: Staphylococcus aureus; assay: Bactericidal activity against Staphylococcus aureus ATCC 25923 at 4 times MIC after 1 hr by time kill assay; type: functional, organism-based
[15] = system: Staphylococcus aureus; assay: Bactericidal activity against methicillin resistant Staphylococcus aureus ATCC 33591 at 4 times MIC after 1 to 2.5 hrs by time kill assay; type: functional, organism-based; conditions: time 1-2.5 hrs
[16] = system: Staphylococcus aureus; assay: Induction of resistant development in Staphylococcus aureus ATCC 25923 assessed as fold increase by serial passage assay; type: functional
[17] = system: Cell membrane; assay: Induction of cytoplasmic membrane depolarization in Pseudomonas aeruginosa ATCC 27853 by DiSC35 dye based fluorescence method
[18] = system: Cell membrane; assay: Induction of cytoplasmic membrane depolarization in methicillin resistant Staphylococcus aureus ATCC 33591 by DiSC35 dye based fluorescence method
[19] = system: Cell membrane; assay: Induction of membrane disruption in Pseudomonas aeruginosa ATCC 27853 assessed as membrane blebbing at low concentration incubated for 24 hrs by SEM analysis; type: subcellular
[20] = system: Cell membrane; assay: Induction of membrane disruption in Pseudomonas aeruginosa ATCC 27853 assessed as irregular atrophy at low concentration incubated for 24 hrs by SEM analysis; type: subcellular
[21] = system: Cell membrane; assay: Induction of membrane disruption in Pseudomonas aeruginosa ATCC 27853 assessed as cell lysis at high concentration incubated for 24 hrs by SEM analysis; type: subcellular
[22] = system: Cell membrane; assay: Induction of membrane disruption in methicillin resistant Staphylococcus aureus ATCC 33591 assessed as membrane shrinkage at low concentration incubated for 24 hrs by SEM analysis; type: subcellular
[23] = system: Cell membrane; assay: Induction of membrane disruption in methicillin resistant Staphylococcus aureus ATCC 33591 assessed as membrane blebbing at low concentration incubated for 24 hrs by SEM analysis; type: subcellular
[24] = system: Cell membrane; assay: Induction of membrane disruption in methicillin resistant Staphylococcus aureus ATCC 33591 assessed as irregular atrophy at low concentration incubated for 24 hrs by SEM analysis; type: subcellular
[25] = system: Cell membrane; assay: Induction of membrane disruption in methicillin resistant Staphylococcus aureus ATCC 33591 assessed as cell lysis at high concentration incubated for 24 hrs by SEM analysis; type: subcellular
[26] = system: Cell membrane; assay: Induction of membrane disruption in Pseudomonas aeruginosa ATCC 27853 assessed as membrane collapse at 2 to 4 times MIC incubated for 24 hrs by TEM analysis; type: subcellular
[27] = system: Cell membrane; assay: Induction of membrane disruption in methicillin resistant Staphylococcus aureus ATCC 33591 assessed as separation […] at 2 to 4 times MIC incubated for 2 to 4 hrs by TEM analysis; type: subcellular; conditions: time 2-4 hrs
[28] = system: Cell membrane; assay: Induction of membrane disruption in methicillin resistant Staphylococcus aureus ATCC 33591 assessed as cytoplasmic leakage at 2 to 4 times MIC incubated for 2 to 4 hrs by TEM analysis; type: subcellular; conditions: time 2-4 hrs
[29] = system: Pseudomonas aeruginosa; assay: Induction of DNA leakage in Pseudomonas aeruginosa ATCC 27853; type: functional, organism-based; conditions: TDE = time-dependent effect
[30] = system: Pseudomonas aeruginosa; assay: Induction of protein leakage in Pseudomonas aeruginosa ATCC 27853; type: functional, organism-based; conditions: TDE = time-dependent effect
[31] = system: Pseudomonas aeruginosa; assay: Induction of protein leakage in Pseudomonas aeruginosa ATCC 27853 after 1 to 6 hrs; type: functional, organism-based; conditions: time 1-6 hrs
[32] = system: DNA; assay: Binding affinity to Staphylococcus aureus DNA at 8 times MIC incubated for 30 mins; type: nucleic-acid assay
[33] = system: DNA; assay: Binding affinity to methicillin resistant Staphylococcus aureus DNA at 8 times MIC incubated for 30 mins; type: nucleic-acid assay
[34] = system: DNA; assay: Binding affinity to Pseudomonas aeruginosa DNA at 8 times MIC incubated for 30 mins; type: nucleic-acid assay
[35] = system: Pseudomonas aeruginosa; assay: Antimicrobial activity against Pseudomonas aeruginosa ATCC 27853 infected in C57BL/6J mouse assessed as reduction in lung bacterial load at 10 mg/kg, ip measured after 72 hrs […] (reference value: 6.4 10^3CFU/mg); type: functional
[36] = system: Pseudomonas aeruginosa; assay: Antimicrobial activity against Pseudomonas aeruginosa ATCC 27853 infected in C57BL/6J mouse assessed as reduction in IL-1beta at 2.5 mg/kg, ip measured after 72 hrs […]; type: functional, organism-based
[37] = system: Pseudomonas aeruginosa; assay: Antimicrobial activity against Pseudomonas aeruginosa ATCC 27853 infected in C57BL/6J mouse assessed as reduction in IL-6 at 2.5 mg/kg, ip measured after 72 hrs […]; type: functional, organism-based
[38] = system: Staphylococcus aureus; assay: Antimicrobial activity against methicillin resistant Staphylococcus aureus ATCC 33591 infected in skin wound mouse model assessed as reduction in skin damage at 0.25 mg/kg measured upto 10 days by H and E staining based assay; type: functional, organism-based; conditions: time <= 10.0 day
[39] = system: Staphylococcus aureus; assay: Antimicrobial activity against methicillin resistant Staphylococcus aureus ATCC 33591 infected in skin wound mouse model assessed as reduction in number of inflammatory cells at 1 to 4 mg/kg measured on day 3 and 7 by H and E staining based assay; type: functional, organism-based; conditions: dose 1-4 mg/kg, time 3-7 day
[40] = system: Staphylococcus aureus; assay: Antimicrobial activity against methicillin resistant Staphylococcus aureus ATCC 33591 infected in skin wound mouse model assessed as reduction in edema at 1 to 4 mg/kg measured on day 3 and 7 by H and E staining based assay; type: functional, organism-based; conditions: dose 1-4 mg/kg, time 3-7 day

With `CC(C)C[C@H](N)CN(CC(=O)N[C@@H](CCCCN)C(=O)N[C@@H](CC(C)C)C(=O)N[C@@H](CC(C)C)C(=O)N[C@@H](CCCCN)C(=O)N[C@@H](CCCCN)C(=O)N[C@@H](CC(C)C)C(=O)N[C@@H](CC(C)C)C(N)=O)S(=O)(=O)c1ccc(I)cc1` (X1-[X2]KLLKKLL-NH2) the Activity [1] was “Active”, the MIC [2] was 3 µg/mL (≈ 2.35 µM) and the Activity [3] was “Active”. The Activity [4] was “Active”, the Activity [5] was 50% and the Activity [6] was “Active”. For the same compound, the Activity [7] was 20 um, the Activity [8] was 60 um and the Activity [9] was “Active”. For the same compound, the Activity [10] was “Active”, the Activity [11] was “Active” and the Activity [12] was “Active”. The Activity [13] was “Active”, the Activity [14] was “Active” and the Activity [15] was “Active”. The “fold change (FC)” value [16] was 2, the Activity [17] was “Active” and the Activity [18] was “Active”. For the same compound, the Activity [19] was “Active”, the Activity [20] was “Active” and the Activity [21] was “Active”. The Activity [22] was “Active”, the Activity [23] was “Active” and the Activity [24] was “Active”. For the same compound, the Activity [25] was “Active”, the Activity [26] was “Active” and the Activity [27] was “Active”. For the same compound, the Activity [28] was “Active”, the Activity [29] was “Tde” and the Activity [30] was “Tde”. For the same compound, the Activity [31] was “Dose-Dependent Effect”, the Activity [32] was “Active” and the Activity [33] was “Active”. For the same compound, the Activity [34] was “Active”, the Activity [35] was 1 10^3CFU/mg and the Activity [36] was “Active”. The Activity [37] was “Active”, the Activity [38] was “Active” and the Activity [39] was “Active”. For the same compound, the Activity [40] was “Active”.

Source: ChEMBL document CHEMBL5380773, “Novel Feleucin-K3-Derived Peptides Modified with Sulfono-γ-AA Building Blocks Targeting Pseudomonas aeruginosa and Methicillin-Resistant Staphylococcus aureus Infections” (J Med Chem, 2023)
